Test results: ChEMBL document CHEMBL1130485, “Novel low molecular renin inhibitors which show good oral blood pressure lowering effects in marmosets” (Bioorg Med Chem Lett, 1997)

Columns and labels:
Renin = target: T1, Renin (Homo sapiens, UniProt P00797); assay: In vitro renin inhibitory effect was evaluated for plasma renin activity (PRA) of human plasma, Expressed as IC50; type: cell-free
T1 sequence (P00797 whole entry): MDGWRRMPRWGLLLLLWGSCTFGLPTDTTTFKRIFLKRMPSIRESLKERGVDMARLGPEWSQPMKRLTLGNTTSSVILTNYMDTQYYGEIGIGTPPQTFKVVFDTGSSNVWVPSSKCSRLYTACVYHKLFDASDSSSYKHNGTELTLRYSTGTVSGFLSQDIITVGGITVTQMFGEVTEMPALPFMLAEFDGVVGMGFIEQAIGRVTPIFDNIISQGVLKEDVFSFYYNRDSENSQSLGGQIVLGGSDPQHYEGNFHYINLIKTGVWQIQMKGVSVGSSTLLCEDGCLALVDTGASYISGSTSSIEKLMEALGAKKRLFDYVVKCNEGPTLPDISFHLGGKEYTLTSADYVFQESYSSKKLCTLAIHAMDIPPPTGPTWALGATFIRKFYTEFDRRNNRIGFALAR

Pepsin A (Sus scrofa) = Pepsin A (Sus scrofa) (UniProt P00791); assay: Percent Inhibitory activity against pepsin at the concentration of 100000 nM
Pepsin A (Sus scrofa), sequence (P00791 60-385 limits assumed): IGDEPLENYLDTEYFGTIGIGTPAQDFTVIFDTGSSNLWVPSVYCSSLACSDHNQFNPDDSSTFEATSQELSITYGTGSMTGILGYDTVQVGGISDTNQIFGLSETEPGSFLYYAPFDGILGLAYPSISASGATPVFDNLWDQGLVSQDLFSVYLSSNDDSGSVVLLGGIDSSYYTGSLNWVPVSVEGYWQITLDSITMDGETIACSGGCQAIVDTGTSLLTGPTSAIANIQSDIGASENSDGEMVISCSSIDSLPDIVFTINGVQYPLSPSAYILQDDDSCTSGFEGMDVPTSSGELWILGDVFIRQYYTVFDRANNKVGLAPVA

[1] = In vivo blood pressure lowering effects in salt depleted conscious marmosets was determined when a dose of 10mg/Kg, po. at 1 hr; type: functional, Callitrichinae
[2] = target: T2, Angiotensin-converting enzyme (Homo sapiens, UniProt P12821); assay: Percent Inhibitory activity against angiotensin-converting enzyme (ACE) human at the concentration of 100000 nM
T2 sequence (P12821 whole entry): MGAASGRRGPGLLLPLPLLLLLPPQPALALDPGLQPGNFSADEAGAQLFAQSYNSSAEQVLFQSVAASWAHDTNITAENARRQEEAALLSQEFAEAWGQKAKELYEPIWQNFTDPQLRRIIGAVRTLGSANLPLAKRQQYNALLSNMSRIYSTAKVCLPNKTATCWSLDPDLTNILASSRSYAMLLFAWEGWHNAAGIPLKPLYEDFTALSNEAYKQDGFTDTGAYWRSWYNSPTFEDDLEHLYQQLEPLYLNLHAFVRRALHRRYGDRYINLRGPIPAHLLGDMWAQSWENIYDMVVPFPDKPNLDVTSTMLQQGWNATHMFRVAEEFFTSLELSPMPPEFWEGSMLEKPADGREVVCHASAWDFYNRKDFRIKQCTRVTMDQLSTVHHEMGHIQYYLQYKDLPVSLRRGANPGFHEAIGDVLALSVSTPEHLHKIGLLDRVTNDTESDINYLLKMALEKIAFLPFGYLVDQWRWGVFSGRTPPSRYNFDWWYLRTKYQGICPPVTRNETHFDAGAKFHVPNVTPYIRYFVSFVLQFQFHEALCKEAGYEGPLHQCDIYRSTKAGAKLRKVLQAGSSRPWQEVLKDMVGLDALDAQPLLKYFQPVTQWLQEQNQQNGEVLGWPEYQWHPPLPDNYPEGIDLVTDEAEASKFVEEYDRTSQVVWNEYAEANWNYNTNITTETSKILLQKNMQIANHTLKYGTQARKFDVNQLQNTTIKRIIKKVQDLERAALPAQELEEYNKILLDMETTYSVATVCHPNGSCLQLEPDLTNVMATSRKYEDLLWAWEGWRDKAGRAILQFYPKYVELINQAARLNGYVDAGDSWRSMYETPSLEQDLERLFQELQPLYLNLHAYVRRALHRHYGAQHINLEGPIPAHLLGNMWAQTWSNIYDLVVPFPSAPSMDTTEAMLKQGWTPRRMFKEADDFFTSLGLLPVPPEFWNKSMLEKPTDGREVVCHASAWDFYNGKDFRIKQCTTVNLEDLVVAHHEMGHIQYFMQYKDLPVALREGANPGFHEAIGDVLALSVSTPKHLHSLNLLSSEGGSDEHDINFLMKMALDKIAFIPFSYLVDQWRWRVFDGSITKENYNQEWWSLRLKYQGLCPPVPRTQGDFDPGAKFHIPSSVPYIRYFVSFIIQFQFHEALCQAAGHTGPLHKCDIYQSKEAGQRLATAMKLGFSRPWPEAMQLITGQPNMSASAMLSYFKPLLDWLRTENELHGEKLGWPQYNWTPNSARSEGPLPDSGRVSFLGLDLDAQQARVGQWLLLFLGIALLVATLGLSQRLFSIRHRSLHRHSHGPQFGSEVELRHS

[3] = In vivo blood pressure lowering effects in salt depleted conscious marmosets was determined when a dose of 10mg/Kg, po. at 0.5 hr; type: functional, Callitrichinae
[4] = target: T3, Renin (Rattus norvegicus) (UniProt P08424); assay: In vitro percent Inhibitory activity against rat plasma renin at the concentration of 100000 nM; type: cell-free
T3 sequence (whole entry): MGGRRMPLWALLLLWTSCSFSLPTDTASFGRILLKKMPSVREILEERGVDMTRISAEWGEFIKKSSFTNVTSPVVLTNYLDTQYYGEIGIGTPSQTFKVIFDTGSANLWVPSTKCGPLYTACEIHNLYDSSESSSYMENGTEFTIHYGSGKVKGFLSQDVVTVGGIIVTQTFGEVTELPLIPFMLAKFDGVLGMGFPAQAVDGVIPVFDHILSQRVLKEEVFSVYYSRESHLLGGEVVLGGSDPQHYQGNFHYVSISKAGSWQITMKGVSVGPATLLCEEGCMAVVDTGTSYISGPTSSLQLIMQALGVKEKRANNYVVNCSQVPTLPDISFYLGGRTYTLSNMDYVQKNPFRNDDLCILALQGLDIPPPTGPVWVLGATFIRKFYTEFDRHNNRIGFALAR

[5] = In vivo blood pressure lowering effects in salt depleted conscious marmosets was determined when a dose of 10mg/Kg, po. at 3h; type: functional, Callitrichinae
Cathepsin D = target: T4, Cathepsin D (Bos taurus, UniProt P80209); assay: Inhibitory activity against cathepsin D (bovine), expressed as IC50
T4 sequence (P80209 whole entry): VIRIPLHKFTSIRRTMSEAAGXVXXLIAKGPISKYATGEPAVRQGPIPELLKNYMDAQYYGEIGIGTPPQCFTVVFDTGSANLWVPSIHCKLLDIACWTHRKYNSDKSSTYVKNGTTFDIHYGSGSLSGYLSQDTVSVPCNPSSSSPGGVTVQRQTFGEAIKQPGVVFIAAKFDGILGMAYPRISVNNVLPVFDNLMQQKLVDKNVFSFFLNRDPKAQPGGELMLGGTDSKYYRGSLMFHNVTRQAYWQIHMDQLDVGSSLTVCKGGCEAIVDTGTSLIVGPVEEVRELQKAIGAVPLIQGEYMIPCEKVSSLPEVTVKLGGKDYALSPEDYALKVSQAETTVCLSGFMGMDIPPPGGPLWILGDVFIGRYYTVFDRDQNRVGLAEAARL

Pepsin A = Pepsin A (Sus scrofa, UniProt P00791); assay: In vitro inhibitory effect was evaluated against pepsin, Expressed as IC50
Pepsin A, sequence (P00791 whole entry): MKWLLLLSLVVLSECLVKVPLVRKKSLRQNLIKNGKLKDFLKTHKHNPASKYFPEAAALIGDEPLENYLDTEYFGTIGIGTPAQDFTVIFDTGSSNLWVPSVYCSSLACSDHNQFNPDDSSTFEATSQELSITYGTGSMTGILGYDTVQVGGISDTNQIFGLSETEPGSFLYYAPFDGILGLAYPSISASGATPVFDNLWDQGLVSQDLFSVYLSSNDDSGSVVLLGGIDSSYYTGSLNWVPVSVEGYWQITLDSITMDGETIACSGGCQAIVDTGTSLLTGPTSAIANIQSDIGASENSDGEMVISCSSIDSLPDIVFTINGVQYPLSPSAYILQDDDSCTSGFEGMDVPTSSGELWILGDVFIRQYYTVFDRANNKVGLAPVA

[6] = target: T2, Angiotensin-converting enzyme; assay: Inhibitory activity against ACE human, expressed as IC50

CC(C)[C@@H](O)C[C@H](O)[C@H](CC1CCCCC1)NC(=O)[C@H](Cc1cnc[nH]1)NC(=O)C1Cc2ccccc2N1 (stereo in doubt; 4)
IC50 (Renin): 880 nM

CC(C)[C@@H](O)C[C@H](O)[C@H](CC1CCCCC1)NC(=O)[C@H](Cc1c[nH]cn1)NC(=O)c1cc2ccccc2[nH]1
inhibition (Pepsin A (Sus scrofa)): 5.6% | Delta SBP [1]: -15 mmHg | inhibition [2]: 6% | Delta SBP [3]: -12 mmHg | inhibition [4]: 41.1% | Delta SBP [5]: -13 mmHg

CC(C)[C@@H](O)C[C@H](O)[C@H](CC1CCCCC1)NC(=O)[C@H](Cc1c[nH]cn1)NC(=O)c1cc2cc(F)ccc2[nH]1
Delta SBP [1]: -21 mmHg | Delta SBP [3]: -18 mmHg | IC50 (Renin): 46 nM | Delta SBP [5]: -12 mmHg

CC(C)[C@@H](O)C[C@H](O)[C@H](CC1CCCCC1)NC(=O)[C@H](Cc1cnc[nH]1)NC(=O)c1cc2cc(O)ccc2[nH]1
IC50 (Renin): 600 nM

CC(C)[C@@H](O)C[C@H](O)[C@H](CC1CCCCC1)NC(=O)[C@H](Cc1cnc[nH]1)NC(=O)c1cc2ccccc2[nH]1
IC50 (Cathepsin D): > 100000 nM | IC50 (Pepsin A): > 100000 nM | IC50 [6]: > 100000 nM

CC(C)[C@@H](O)C[C@H](O)[C@H](CC1CCCCC1)NC(=O)[C@H](Cc1c[nH]cn1)NC(=O)c1cc2ccccc2c(O)n1
Delta SBP [1]: 1 mmHg | Delta SBP [3]: -5 mmHg | IC50 (Renin): 48 nM | Delta SBP [5]: 2 mmHg

CC(=O)n1c(C(=O)N[C@@H](Cc2cnc[nH]2)C(=O)N[C@@H](CC2CCCCC2)[C@@H](O)C[C@H](O)C(C)C)cc2ccccc21
IC50 (Renin): 340 nM

CC(C)[C@@H](O)C[C@H](O)[C@H](CC1CCCCC1)NC(=O)[C@H](Cc1c[nH]cn1)NC(=O)c1cc2ccccc2cn1
IC50 (Renin): 790 nM

CC(C)[C@@H](O)C[C@H](O)[C@H](CC1CCCCC1)NC(=O)[C@H](Cc1cnc[nH]1)NC(=O)c1cc2ccccc2s1
IC50 (Renin): 8200 nM

CC(C)[C@@H](O)C[C@H](O)[C@H](CC1CCCCC1)NC(=O)[C@H](Cc1cnc[nH]1)N(C)C(=O)[C@H](Cc1ccccc1)NC(=O)N1CCC(O)CC1
IC50 (Renin): 0.68 nM

CC(C)[C@@H](O)C[C@H](O)[C@H](CC1CCCCC1)NC(=O)[C@H](Cc1c[nH]cn1)NC(=O)c1nc2ccccc2[nH]1
Delta SBP [1]: -13 mmHg | Delta SBP [3]: -9 mmHg | IC50 (Renin): 13 nM | Delta SBP [5]: -7 mmHg

CC(C)[C@@H](O)C[C@H](O)[C@H](CC1CCCCC1)NC(=O)[C@H](Cc1c[nH]cn1)NC(=O)c1cc2cc(Cl)ccc2[nH]1
IC50 (Renin): 260 nM

CC(C)[C@@H](O)C[C@H](O)[C@H](CC1CCCCC1)NC(=O)[C@H](Cc1cnc[nH]1)NC(=O)[C@@H]1Cc2ccccc2CN1
IC50 (Renin): 420 nM

CC(C)[C@@H](O)C[C@H](O)[C@H](CC1CCCCC1)NC(=O)[C@H](Cc1cnc[nH]1)NC(=O)c1cc2cccnc2[nH]1
IC50 (Renin): 800 nM

CC(C)[C@@H](O)C[C@H](O)[C@H](CC1CCCCC1)NC(=O)[C@H](Cc1cnc[nH]1)NC(=O)C1Cc2ccccc2N1 (stereo in doubt)
IC50 (Renin): 4400 nM

CC(C)[C@@H](O)C[C@H](O)[C@H](CC1CCCCC1)NC(=O)[C@H](Cc1c[nH]cn1)NC(=O)c1ccc[nH]1
IC50 (Renin): 3000 nM

CC(C)[C@@H](O)C[C@H](O)[C@H](CC1CCCCC1)NC(=O)[C@H](Cc1c[nH]cn1)NC(=O)c1cc2ccccc2o1
IC50 (Renin): 140 nM
